# Laboratory results from patent US20120041009A1, “PYRIMIDINE COMPOUND AND ITS USE IN PEST CONTROL” (SUMITOMO CHEMICAL COMPANY, LIMITED, priority 2009, published 2012).
# Tested on: Tetranychus urticae
# Experiment: Test Example 2: spray test against Tetranychus urticae on brush bean (Phaseolus vulgaris)
# Format: in vivo
# Details: comparative compound, same conditions as in Test Example 2 (500 ppm); day not given
# Protocol: The formulation of each of the present compounds (1), (3), (5), (7) to (11), (13), (14), (18), (20), (22), (24), (26), (27), (29), (30) and (33) to (35) obtained in Formulation Example 1 was diluted with water so as to adjust the concentration of the active ingredient to 500 ppm to prepare a test spray solution.
# About sixty female imagines of Tetranychus urticae were released on brush bean (Phaseolus vulgaris) in the primary leaf stage, which had been potted in a polyethylene cup for 7 days after the seeding. One day after release of female imagines of Tetranychus urticae, 30 ml (per cup) of the test spray solution was sprayed over the brush bean seedling.
# On the 8th and 13th day after spraying, the numbers of survival Tetranychus urticae on the leaf of the brush bean plant were examined, and the control rate was calculated by the following equation.
# Control rate=100×{1−(number of survival Tetranychus urticae in treated section)/(number of survival Tetranychus urticae in non-treated section)}
structure (smiles),measurement,value
O=c1[nH]c(-c2cncnc2C(F)(F)F)no1 [comparative compound (C)],control value,less than 30%
